Measurements reported in the SangsterLogP compilation.

Assay: method code SF-AS, from DOI: 10.1002/recl.19891080306

Row | logP | SMILES
1 | 1.63 | c1ccc2c(c1)OCCOCCOCCOCCOCCOCCOc1ccccc1OCCO2
2 | 0.23 | c1ccc2c(c1)OCCOCCOCCOCCOCCOCCOCCOCCO2
3 | -0.09 | c1ccc2c(c1)OCCOCCOCCOCCOCCOCCOCCOCCOCCOCCO2
4 | 0.03 | c1ccc2c(c1)OCCOCCOCCOCCOCCOCCOCCOCCOCCO2
5 | 2.11 | c1ccc2c(c1)OCCOCCOCCOc1ccccc1OCCOCCOCCO2
6 | 1.8 | c1ccc2c(c1)OCCOCCOCCOCCOc1ccccc1OCCOCCOCCOCCO2
7 | 1.82 | c1ccc2c(c1)OCCOCCOCCOCCOCCOCCOCCOc1ccccc1OCCO2
8 | 0.52 | c1ccc2c(c1)OCCOCCOCCOCCOCCOCCOCCOc1ccccc1OCCOCCOCCOCCOCCOCCOCCO2
9 | 1.45 | c1ccc2c(c1)OCCOCCOCCOCCOCCOCCOc1ccccc1OCCOCCOCCO2

Further lines, the molecule ahead of its results:

Row | SMILES | logP
10 | c1ccc2c(c1)OCCOCCOCCOCCOCCOCCO2 | 0.57
11 | COCCOCCOCCOc1ccccc1OCCOCCOCCOC | 0.38
12 | c1ccc2c(c1)OCCOCCOCCOCCO2 | 0.91
13 | c1ccc2c(c1)OCCOCCOCCOCCOCCO2 | 0.58
14 | COCCOCCOc1ccccc1OCCOCCOC | 0.76
15 | COCCOCCOc1ccc(OCCOCCOC)cc1 | 0.76
16 | c1ccc2c(c1)OCCOCCOc1ccccc1OCCOCCO2 | 2.2
17 | c1ccc2c(c1)OCCOCCOCCOCCOCCOCCOCCO2 | 0.45
18 | COCCOCCOc1cccc(OCCOCCOC)c1 | 0.86
